Experimental data taken from patent US8129558B2, “Pesticide naphthyloxy substituted phenylamidine derivatives” (Bayer Cropscience AG, priority 2005, dated 2012).

What was measured:
[1] = logP determination by HPLC on reversed-phase column (C18), EEC Directive 79/831 Annex V.A8; format: physicochemical; conditions: for logPa: C18, 40° C., 0.1% aqueous formic acid and acetonitrile; for log P (pH 2.3): pH 2.3, C18
Description: Calibration was carried out using unbranched alkan-2-ones (comprising 3 to 16 carbon atoms) with known logP values (determination of the logP values by the retention times using linear interpolation between two successive alkanones).

Heliothis viresens = experiment: Efficacy Example I: in vivo protective test on Heliothis viresens (HELIVI); design: species or system Heliotis virescens; conditions: soybean leaf sections sprayed, infested with eggs of cotton bollworm; concentration and time not given
Description: in vivo Protective Test on Heliothis viresens (HELIVI)
(§1) To produce a suitable preparation of active compound, 1 part by weight of active compound is mixed with the stated amount of solvent and emulsifier, and the concentrate is diluted with emulsifier-containing water to the desired concentration.
Soybean (Glycine max.) leaf sections are sprayed with a preparation of the active ingredient of the desired concentration. Once dry, the leaf sections are infested with eggs of cotton bollworm (Heliotis virescens).
After the specified period of time, mortality in % is determined. 100% means that all eggs have been killed and 0% means that none of the eggs have been killed.

Myzus persicae = experiment: Efficacy Example H: in vivo protective test on Myzus persicae (MYZUPE); conditions: Chinese cabbage leaf-disks infected with all instars of green peach aphid, sprayed; concentration and time not given
Description: in vivo Protective Test on Myzus persicae (MYZUPE)
as §1
Chinese cabbage (Brassica pekinesis) leaf-disks infected with all instars of the green peach aphid (Myzus persicae), are sprayed with a preparation of the active ingredient at the desired concentration.
After the specified period of time, mortality in % is determined. 100% means that all aphids have been killed; 0% means that none of the aphids have been killed.

Row | logPa [1] | Structure (SMILES) | other results
1 | 2.21 | CCN(C)C=Nc1cc(C)c(Oc2ccc3cc(C(O)c4ccccc4)ccc3c2)cc1C (racemic) [Compound 19] | 
2 |  | Cc1cc([N+](=O)[O-])c(C)cc1Oc1ccc2ccccc2c1 [4-(naphthyl-2-oxy)-2,5-dimethylnitrobenzene] | log P (pH 2.3) [1]: 5.04
3 |  | CCN(C)C=Nc1cc(C)c(Oc2ccc3ccccc3c2)cc1C [Compound 1, N-ethyl-N-methyl-N′-[4-(naphthyl-2-oxy)-2,5-xylyl]form-amidine] | log P (pH 2.3) [1]: 2.38
4 |  | Cc1cc(Oc2ccc3ccccc3c2)c(C)cc1N=CN1CCCCC1 [Compound 2, Piperidinyl-N-[4-(naphthyl-2-oxy)-2,5-xylyl]form-amidine] | log P (pH 2.3) [1]: 2.51
5 | 2.52 | Cc1cc(Oc2ccc3ccccc3c2)c(C)cc1N=CN(C)C(C)C [Compound 4] | 
6 | 1.92 | CCN(C)C=Nc1cc(C)c(Oc2ccc3ccc(O)cc3c2)cc1C [Compound 5] | 
7 | 2.02 | Cc1cc(Oc2ccc3ccc(O)cc3c2)c(C)cc1N=CN(C)C(C)C [Compound 6] | 
8 | 2.92 | Cc1cc(Oc2ccc3cc(Br)ccc3c2)c(C)cc1N=CN(C)C(C)C [Compound 7] | 
9 | 2.69 | CCN(C)C=Nc1cc(C)c(Oc2ccc3cc(Br)ccc3c2)cc1C [Compound 8] | 
10 | 2.89 | CCCN(C)C=Nc1cc(C)c(Oc2ccc3cc(Br)ccc3c2)cc1C [Compound 9] | 
11 | 2.07 | CCN(C)C=Nc1cc(C)c(Oc2ccc3cc(C#N)ccc3c2)cc1C [Compound 11] | 
12 | 2.20 | Cc1cc(Oc2ccc3cc(C#N)ccc3c2)c(C)cc1N=CN(C)C(C)C [Compound 12] | 
13 | 2.66 | CCN(C)C=Nc1cc(C)c(Oc2ccc3cc(C(=O)c4ccccc4)ccc3c2)cc1C [Compound 14] | 
14 | 2.77 | CCCN(C)C=Nc1cc(C)c(Oc2ccc3cc(C(=O)c4ccccc4)ccc3c2)cc1C [Compound 15] | 
15 | 2.56 | COc1ccc2ccc(Oc3cc(C)c(N=CN(C)C(C)C)cc3C)cc2c1 [Compound 16] | 
16 | 2.61 | CCCN(C)C=Nc1cc(C)c(Oc2ccc3ccc(OC)cc3c2)cc1C [Compound 18] | 

Row | logPa [1] | Structure (SMILES) | other results
17 | 2.21 | Cc1cc(Oc2ccc3ccccc3c2)c(C)cc1N=CN1CCOCC1 [Compound 21] | 
18 | 1.55 | Cc1cc(Oc2ccc3ccccc3c2)c(C)cc1N=CN1CCNCC1 [Compound 22] | 
19 | 1.64 | Cc1cc(Oc2ccc3ccccc3c2)c(C)cc1N=CN1CCN(C)CC1 [Compound 23] | 
20 | 2.62 | CCCCNc1ccc2ccc(Oc3cc(C)c(N=CN(C)CC)cc3C)cc2c1 [Compound 24] | 
21 | 2.91 | CCCCNc1ccc2ccc(Oc3cc(C)c(N=CN(C)CCC)cc3C)cc2c1 [Compound 25] | 
22 | 2.33 | Cc1cc(Oc2ccc3ccccc3c2)c(C)cc1N=CN1CCCC1 [Compound 26] | 
23 | 3.20 | CON=C(c1ccccc1)c1ccc2cc(Oc3cc(C)c(N=CN(C)C(C)C)cc3C)ccc2c1 [Compound 27] | 
24 | 3.05 | CCN(C)C=Nc1cc(C)c(Oc2ccc3cc(C(=NOC)c4ccccc4)ccc3c2)cc1C [Compound 28] | 
25 | 3.14 | CCCN(C)C=Nc1cc(C)c(Oc2ccc3cc(C(=NOC)c4ccccc4)ccc3c2)cc1C [Compound 29] | 
26 | 2.70 | COc1ccc2cc(Oc3cc(C)c(N=CN(C)C(C)C)cc3C)ccc2c1 [Compound 30] | 
27 | 1.75 | Cc1cc(Oc2ccc3cc(S(=O)(=O)NCCO)ccc3c2)c(C)cc1N=CN(C)C(C)C [Compound 31] | 
28 | 2.43 | CCN(C)C=Nc1cc(C)c(Oc2cccc3ccccc23)cc1C [Compound 32] | 
29 | 2.33 | CC(=O)O.CCN(C)C=Nc1cc(C)c(Oc2ccc3ccccc3c2)cc1C [Compound 34] | 
30 | 2.25 | CCN(C)C=Nc1cc(C)c(Oc2ccc3ccccc3c2)cc1C.O=C(O)C(=O)O [Compound 35] | 
31 | 2.44 | CCN(C)C=Nc1cc(C)c(Oc2ccc3ccccc3c2)cc1C.O=C(O)c1ccccc1 [Compound 36] | 

Row | Structure (SMILES) | logPa [1] | other results
32 | CCCN(C)C=Nc1cc(C)c(Oc2ccc3cc(C#N)ccc3c2)cc1C [Compound 10] | 2.23 | activity (mortality in %) (Heliothis viresens): good activity
33 | Cc1cc(Oc2ccc3cc(C(=O)c4ccccc4)ccc3c2)c(C)cc1N=CN(C)C(C)C [Compound 13] | 2.75 | activity (mortality in %) (Heliothis viresens): good activity
34 | CCN(C)C=Nc1cc(C)c(Oc2ccc3ccc(OC)cc3c2)cc1C [Compound 17] | 2.44 | activity (mortality in %) (Myzus persicae): good activity
35 | CCCCNc1ccc2ccc(Oc3cc(C)c(N=CN(C)C(C)C)cc3C)cc2c1 [Compound 20] | 2.91 | 
